# Data as given in patent publication US20260102387A1, “IMMUNOSUPPRESSIVE COMPOUNDS” (UNIVERSITÄT BASEL, priority 2022, published 2026).
# “Also recorded” adds a separate entry of the source.
# System: coronin 1 promoter
# Assay: EC50 analysis for coronin 1 promoter driven GFP inhibition by flow cytometry in RBL cells
# Assay type: cell-based
# Conditions: Amlodipine 3.125 μM, verapamil 8 μM, 48 h, flow cytometry
# Protocol: RBL cells that had been incubated with the indicated calcium channel blockers (amlodipine (3.125 μM) and verapamil (8 μM) concentrations for 48 h were analyzed by flow cytometry for any alteration in coronin 1 promoter driven GFP fluorescence. The results reveal no effect of calcium channel blockers on coronin 1 promoter activity (FIG. 4).
# (§1) RBL cells expressing GFP under coronin 1 promoter and optionally with RBL cells expressing RFP under CMV promoter were mixed in equal numbers and incubated with the compounds at indicated concentrations for 48-65 h and analyzed by flow cytometry for alteration in coronin 1 promoter (GFP fluorescence), CMV promoter (RFP fluorescence) values. In addition, the cells were labelled with live-dead marker for assessing cell viability status by flow cytometry. Cycloheximide (CHX) serves as positive control and DMSO serves as negative controls. Effective Concentration (EC50) values for coronin 1 promoter inhibition via GFP fluorescence analysis, non-specific promoter inhibition via CMV promoter driven-RFP fluorescence analysis and cell viability via live/dead staining as a measure for toxicity in flow cytometry for compounds (10-22 and 50a-65a) are shown in Table 6 and Table 7. Based on the EC50 analysis of the inhibition of coronin 1 promoter driven GFP fluorescence the (4S,7R)-configurated eutomers were identified (Structures FIG. 9A-C). This is exemplified for compounds containing two stereocenters by eutomers 11c and 13a. […] Subsequent EC50 evaluations (Table 7) were performed with compound 13a as standard for relative potency normalized to a value of 1.00 (relative potency calculated as [EC50 GFP inhibition 13a]/[EC50 GFP inhibition compound of interest]).
row,SMILES,coronin 1 promoter activity as assessed by GFP reduction
1,"COc1ccc(CCN(C)CCCC(C#N)(c2ccc(OC)c(OC)c2)C(C)C)cc1OC (stereo not drawn) [verapamil, reference compound]",no effect; also recorded: not inhibiting coronin 1 promoter activity
2,"CCOC(=O)C1=C(COCCN)NC(C)=C(C(=O)OC)C1c1ccccc1Cl (stereo not drawn) [Amlodipine, reference compound]",no effect

# Same assay, conditions: RBL, RBL cells, 48-65 h, flow cytometry
row,EC50,SMILES
1,> 36 µM,"COC(=O)C1=C(C)NC2=C(C(=O)C[C@H](c3ccccc3OC)C2)[C@H]1c1cccc(O)c1 (stereo in doubt) [11b, methyl-4-(3-hydroxyphenyl)-7-(2-methoxyphenyl)-2-methyl-5-oxo-1,4,5,6,7,8-hexahydro-3-quinolinecarboxylate]"

# Same assay, conditions: [EC50 GFP inhibition 13a]/[EC50 GFP inhibition compound of interest]; 13a = 1.00
row,SMILES,rel. potency GFP inhibition
1,"COc1ccccc1[C@H]1CC(=O)C2=C(C1)NC(C)=C(C(=O)O[C@@H]1CCOC1)[C@H]2c1cccc(O)c1 [50b, tetrahydrofuran-3-yl (4S, 7R)-4-(3-hydroxyphenyl)-7-(2-methoxyphenyl)-2-methyl-5-oxo-1,4,5,6,7,8-hexahydroquinoline-3-carboxylate]",1.23
2,"CCCCCCOCCOCCOCCOC(=O)C1=C(C)NC2=C(C(=O)C[C@H](c3ccccc3OC)C2)[C@@H]1c1cccc(O)c1 [65a, 2-(2-(2-(hexyloxy)ethoxy)ethoxy)ethyl (4S, 7R)-4-(3-hydroxyphenyl)-7-(2-methoxyphenyl)-2-methyl-5-oxo-1,4,5,6,7,8-hexahydroquinoline-3-carboxylate]",0.12
3,"CCC(C)(C)COC(=O)C1=C(C)NC2=C(C(=O)C[C@H](c3ccccc3OC)C2)[C@@H]1c1cccc(O)c1 [62a, 2,2-dimethylbutyl (4S, 7R)-4-(3-hydroxyphenyl)-7-(2-methoxyphenyl)-2-methyl-5-oxo-1,4,5,6,7,8-hexahydroquinoline-3-carboxylate]",0.10
4,"COc1ccccc1[C@H]1CC(=O)C2=C(C1)NC(C)=C(C(=O)OCCCC(C)(C)C)[C@H]2c1cccc(O)c1 [63a, 4,4-dimethylpentyl (4S, 7R)-4-(3-hydroxyphenyl)-7-(2-methoxyphenyl)-2-methyl-5-oxo-1,4,5,6,7,8-hexahydroquinoline-3-carboxylate]",0.07
5,"COc1ccccc1[C@@H]1CC(=O)C2=C(C1)NC(C)=C(C(=O)OC1CCOCC1)[C@@H]2c1cccc(O)c1 [13d, tetrahydro-2H-pyran-4-yl-4-(3-hydroxyphenyl)-7-(2-methoxyphenyl)-2-methyl-5-oxo-1,4,5,6,7,8-hexahydro-3-quinolinecarboxylate]",0.09
6,"COc1ccccc1[C@H]1CC(=O)C2=C(C1)NC(C)=C(C(=O)O[C@H]1CO[C@H]3OCC[C@H]31)[C@H]2c1cccc(O)c1 [55a, (3R,3aS,6aR)-hexahydrofuro[2,3-b]furan-3-yl (4S, 7R)-4-(3-hydroxyphenyl)-7-(2-methoxyphenyl)-2-methyl-5-oxo-1,4,5,6,7,8-hexahydroquinoline-3-carboxylate]",0.61
7,"COc1ccccc1[C@H]1CC(=O)C2=C(C1)NC(C)=C(C(=O)OC1CC3CCC(C1)O3)[C@H]2c1cccc(O)c1 (stereo partly drawn) [53a, 8-oxabicyclo[3.2.1]octan-3-yl (4S, 7R)-4-(3-hydroxyphenyl)-7-(2-methoxyphenyl)-2-methyl-5-oxo-1,4,5,6,7,8-hexahydroquinoline-3-carboxylate]",1.42
8,"COc1ccccc1[C@H]1CC(=O)C2=C(C1)NC(C)=C(C(=O)OC[C@H]1CCCO1)[C@H]2c1cccc(O)c1 [12g, tetrahydro-2-furanylmethyl (4S, 7R)-4-(3-hydroxyphenyl)-7-(2-methoxyphenyl)-2-methyl-5-oxo-1,4,5,6,7,8-hexahydro-3-quinolinecarboxylate]",1.00
9,"COc1ccccc1[C@H]1CC(=O)C2=C(C1)NC(C)=C(C(=O)OC1CCOCC1)C2c1ccc(F)c(O)c1 (mixture of isomers) [66b, tetrahydro-2H-pyran-4-yl 4-(4-fluoro-3-hydroxyphenyl)-7-(2-methoxyphenyl)-2-methyl-5-oxo-1,4,5,6,7,8-hexahydroquinoline-3-carboxylate]",0.25
10,"COc1ccccc1[C@H]1CC(=O)C2=C(C1)NC(C)=C(C(=O)O[C@H]1CCOC1)[C@H]2c1cccc(O)c1 [50a, tetrahydrofuran-3-yl (4S, 7R)-4-(3-hydroxyphenyl)-7-(2-methoxyphenyl)-2-methyl-5-oxo-1,4,5,6,7,8-hexahydroquinoline-3-carboxylate]",0.73
11,"CCOCCOCCOC(=O)C1=C(C)NC2=C(C(=O)C[C@H](c3ccccc3OC)C2)[C@@H]1c1cccc(O)c1 [64a, 2-(2-ethoxyethoxy)ethyl (4S, 7R)-4-(3-hydroxyphenyl)-7-(2-methoxyphenyl)-2-methyl-5-oxo-1,4,5,6,7,8-hexahydroquinoline-3-carboxylate]",0.62
12,"CCOC(=O)C1=C(C)NC2=C(C(=O)C[C@H](c3ccccc3OC)C2)[C@@H]1c1cccc(O)c1 [58a, ethyl (4S, 7R)-4-(3-hydroxyphenyl)-7-(2-methoxyphenyl)-2-methyl-5-oxo-1,4,5,6,7,8-hexahydroquinoline-3-carboxylate]",0.36
13,"COc1ccccc1[C@H]1CC(=O)C2=C(C1)NC(C)=C(C(=O)OC1CC(C)(C)OC(C)(C)C1)[C@H]2c1cccc(O)c1 [52a, 2,2,6,6-tetramethyltetrahydro-2H-pyran-4-yl (4S, 7R)-4-(3-hydroxyphenyl)-7-(2-methoxyphenyl)-2-methyl-5-oxo-1,4,5,6,7,8-hexahydroquinoline-3-carboxylate]",0.62
14,"COc1ccccc1[C@H]1CC(=O)C2=C(C1)NC(C)=C(C(=O)OCC(C)(C)C)[C@H]2c1cccc(O)c1 [60a, neopentyl (4S, 7R)-4-(3-hydroxyphenyl)-7-(2-methoxyphenyl)-2-methyl-5-oxo-1,4,5,6,7,8-hexahydroquinoline-3-carboxylate]",0.20
15,"CCCCOC(=O)C1=C(C)NC2=C(C(=O)C[C@H](c3ccccc3OC)C2)[C@@H]1c1cccc(O)c1 [59a, butyl (4S, 7R)-4-(3-hydroxyphenyl)-7-(2-methoxyphenyl)-2-methyl-5-oxo-1,4,5,6,7,8-hexahydroquinoline-3-carboxylate]",0.18
16,"COc1ccccc1[C@@H]1CC(=O)C2=C(C1)NC(C)=C(C(=O)OC1CCOCC1)[C@H]2c1cccc(O)c1 [13e, tetrahydro-2H-pyran-4-yl-4-(3-hydroxyphenyl)-7-(2-methoxyphenyl)-2-methyl-5-oxo-1,4,5,6,7,8-hexahydro-3-quinolinecarboxylate]",<0.01
17,"COc1ccccc1[C@H]1CC(=O)C2=C(C1)NC(C)=C(C(=O)OC1(C)CCOCC1)[C@H]2c1cccc(O)c1 [51a, 4-methyltetrahydro-2H-pyran-4-yl (4S, 7R)-4-(3-hydroxyphenyl)-7-(2-methoxyphenyl)-2-methyl-5-oxo-1,4,5,6,7,8-hexahydroquinoline-3-carboxylate]",1.13
18,"COc1ccccc1[C@H]1CC(=O)C2=C(C1)NC(C)=C(C(=O)OC1CCOCC1)[C@@H]2c1cccc(O)c1 [13f, tetrahydro-2H-pyran-4-yl-4-(3-hydroxyphenyl)-7-(2-methoxyphenyl)-2-methyl-5-oxo-1,4,5,6,7,8-hexahydro-3-quinolinecarboxylate]",<0.01
19,"CCC(CC)COC(=O)C1=C(C)NC2=C(C(=O)C[C@H](c3ccccc3OC)C2)[C@@H]1c1cccc(O)c1 [61a, 2-ethylbutyl (4S, 7R)-4-(3-hydroxyphenyl)-7-(2-methoxyphenyl)-2-methyl-5-oxo-1,4,5,6,7,8-hexahydroquinoline-3-carboxylate]",0.10
20,"COc1ccccc1C1CC(=O)C2=C(C1)NC(C)=C(C(=O)OC1CCOCC1)C2c1ccc(F)c(O)c1F (racemic) [67b, tetrahydro-2H-pyran-4-yl 4-(2,4-difluoro-3-hydroxyphenyl)-7-(2-methoxyphenyl)-2-methyl-5-oxo-1,4,5,6,7,8-hexahydroquinoline-3-carboxylate]",0.25
21,"COc1ccccc1[C@H]1CC(=O)C2=C(C1)NC(C)=C(C(=O)OC1CCCC1)[C@H]2c1cccc(O)c1 [56a, cyclopentyl (4S, 7R)-4-(3-hydroxyphenyl)-7-(2-methoxyphenyl)-2-methyl-5-oxo-1,4,5,6,7,8-hexahydroquinoline-3-carboxylate]",0.21
22,"COc1ccccc1[C@H]1CC(=O)C2=C(C1)NC(C)=C(C(=O)OC1CCCOCC1)[C@H]2c1cccc(O)c1 (mixture of isomers) [54a, oxepan-4-yl 4-(3-hydroxyphenyl)-7-(2-methoxyphenyl)-2-methyl-5-oxo-1,4,5,6,7,8-hexahydroquinoline-3-carboxylate]",0.88
23,"COc1ccccc1[C@H]1CC(=O)C2=C(C1)NC(C)=C(C(=O)OC1CCCCC1)[C@H]2c1cccc(O)c1 [57a, cyclohexyl (4S, 7R)-4-(3-hydroxyphenyl)-7-(2-methoxyphenyl)-2-methyl-5-oxo-1,4,5,6,7,8-hexahydroquinoline-3-carboxylate]",0.24

# System: RBL cells
# Assay: Cell viability by live-dead staining (cytotoxicity), flow cytometry
# Assay type: cell-based, Rat
# Conditions: Rattus norvegicus, RBL, cell viability via live/dead staining, 48-65 h, read-out: EC50 Toxicity
# Protocol: as §1
row,SMILES,EC50
1,"COC(=O)C1=C(C)NC2=C(C(=O)C[C@H](c3ccccc3OC)C2)[C@H]1c1cccc(O)c1 (stereo in doubt) [11b, methyl-4-(3-hydroxyphenyl)-7-(2-methoxyphenyl)-2-methyl-5-oxo-1,4,5,6,7,8-hexahydro-3-quinolinecarboxylate]",> 36 µM
